Results from patent US20030195350A1, “Individualization of therapy with antiviral agents” (priority 2001, published 2003).
Like-named read-outs stand apart in the source and are kept apart here. Marks after values point to notes of the source that are not given here.

Legend:
[1] = system: AAMU-Ab; assay: Competitive antigen ELISA, cross-reactivity of AAMU-Ab; type: binding, rabbit; conditions: 0 = absence of inhibition or inhibition no higher than 40% at 5 × 10^−3 M
Procedure: (§1) Buffers and water without additives are filtered through millipore filters and kept for 1 week. BSA, antibodies, Tween™ 20 and horse radish peroxidase conjugates are added to these buffers and water just prior to use. Urine samples are usually collected 4 hours after drinking a cup of coffee (instant or brewed with approximately 100 mg of caffeine per cup) and stored at −80° C. The urine samples are diluted 10 times with sodium phosphate buffer (620 mosm, pH 7.50) and are subsequently diluted with water to give concentrations of AAMU and 1X no higher than 3×10^−6 M in the ELISA. All the pipettings are done with an eight-channel pipette, except those of the antibody and sample solutions. Starting with the last well, 100 μL of a carbonate buffer (100 mM, pH 9.6) containing 2.5 μg mL^−1 antibodies are added to each well. After 90 min. at room temperature, the wells are washed three times with […] of TPB: isotonic sodium phosphate buffer (310 mosm, pH 7.50) containing 0.05% Tween™ 20.
(§2) After the initial wash, unoccupied sites are blocked by incubation for 90 min. at room temperature with 100 μL TBP containing 3% BSA. The wells are washed four times with 100 μL TPB. […] The microplate is gently shaken with an orbital shaker at room temperature for 3-4 hours. The wells are washed three times with 100 μL TPB containing 1% BSA and three times with water containing 0.05% Tween™ 20. To the washed plate is added 150 μL of a substrate buffer composed of citric acid (25 mM) and sodium phosphate dibasic buffer (50 mM, pH 5.0) containing 0.06% hydrogen peroxide and 0.04% o-phenylenediamine hydrochloride.
(§3) Buffers and water without additives were filtered through millipore filters and kept for 1 week. BSA, antibodies, Tween™ 20 and horse radish peroxidase conjugates were added to these buffers and water just prior to use. Urine samples were usually collected 4 hours after drinking a cup of coffee (instant or brewed with approximately 100 mg of caffeine per cup) and stored at −80° C. They were diluted 10 times with sodium phosphate buffer (620 mosm, pH 7.50) and were subsequently diluted with water to give concentrations of AAMU and 1X no higher than 3×10^−6 M in the ELISA. All the pipettings were done with an eight-channel pipette, except those of the antibody and sample solutions. Starting with the last well, 100 μL of a carbonate buffer (100 mM, pH 9.6) containing 2.5 μg mL^−1 antibodies was pipetted. After 90 min. at room temperature, the wells were washed three times with 100 μL of TPB: isotonic sodium phosphate buffer (310 mosm, pH 7.50) containing 0.05% Tween™ 20.
(§4) After the initial wash, unoccupied sites were blocked by incubation for 90 min. at room temperature with 100 μL TBP containing 3% BSA. The wells were washed four times with 100 μL TPB. […] The microplate was gently shaken with an orbital shaker at room temperature for 3-4 hours. The wells were washed three times with 100 μL with TPB containing 1% BSA and three times with water containing 0.05% Tween™ 20. To the washed plate was added 150 μL of a substrate buffer composed of citric acid (25 mM) and sodium phosphate dibasic buffer (50 mM, pH 5.0) containing 0.06% hydrogen peroxide and 0.04% o-phenylenediamine hydrochloride. After 20 min. at room temperature with shaking, the reaction was stopped with 50 μL of 2.5 N HCl.
(§5) The cross reactivities of AAMU-Ab and 1X-Ab were tested using a wide variety of caffeine metabolites and structural analogs (Table 3 below).

[2] = system: 1X-Ab; assay: Competitive antigen ELISA, cross-reactivity of 1X-Ab; type: binding, rabbit; conditions: 0 = absence of inhibition or inhibition no higher than 40% at 5 × 10^−3 M
Procedure: as §1, §2, §3, §4, §5

[3] = co-administration with ritonavir; cited from earlier work
[4] = in vivo; cited from earlier work
[5] = cited from earlier work
[6] = system: HIV isolates; conditions: HIV isolates from individuals during ritonavir therapy vs matched baseline isolates; cited from earlier work
[7] = in vivo; cited from earlier work; remark: listed apart in the source

Structure (SMILES): Cn1c(=O)c2c(ncn2C)n(C)c1=O [1,3,7-Trimethyl Xanthine (Caffeine), 1,3,7-Trimethyl Xanthine]
- % Cross-Reaction AAMU-Ab [1]: 0%
- % Cross-Reaction 1X-Ab [2]: 0%

Structure (SMILES): Cn1c(=O)c2[nH]cnc2n(C)c1=O [1,3-Dimethyl Xanthine (Theophylline), 1,3-Dimethyl Xanthine]
- % Cross-Reaction AAMU-Ab [1]: 0%
- % Cross-Reaction 1X-Ab [2]: 0.2%
- Effect (on drug concentration) [3]: down theophylline

Structure (SMILES): Cn1c(=O)[nH]c2ncn(C)c2c1=O [1,7-Dimethyl Xanthine (Paraxanthine), 1,7-Dimethyl Xanthine]
- % Cross-Reaction AAMU-Ab [1]: 0%
- % Cross-Reaction 1X-Ab [2]: 0.5%

Structure (SMILES): Cn1c(=O)[nH]c2[nH]c(=O)n(C)c2c1=O [1,7-Dimethyluric acid]
- % Cross-Reaction AAMU-Ab [1]: 0%
- % Cross-Reaction 1X-Ab [2]: 0%

Structure (SMILES): Cn1c(=O)[nH]c2nc[nH]c2c1=O [1-Methyl Xanthine (1X), 1-Methyl Xanthine]
- % Cross-Reaction AAMU-Ab [1]: 0%
- % Cross-Reaction 1X-Ab [2]: 100%

Structure (SMILES): Cn1c(=O)[nH]c2[nH]c(=O)[nH]c2c1=O [1-Methyluric acid]
- % Cross-Reaction AAMU-Ab [1]: 0%
- % Cross-Reaction 1X-Ab [2]: 11%

Structure (SMILES): Cn1cnc2c1c(=O)[nH]c(=O)n2C [3,7-Dimethyl Xanthine (Theobromine), 3,7-Dimethyl Xanthine]
- % Cross-Reaction AAMU-Ab [1]: 0%
- % Cross-Reaction 1X-Ab [2]: 0%

Structure (SMILES): Cn1c(=O)[nH]c(=O)c2[nH]cnc21 [3-Methyl Xanthine]
- % Cross-Reaction AAMU-Ab [1]: 0%
- % Cross-Reaction 1X-Ab [2]: 0%

Structure (SMILES): CC(=O)Nc1c(N)n(C)c(=O)n(C)c1=O [5-Acetamino-6-amino-1,3-dimethyluracil]
- % Cross-Reaction AAMU-Ab [1]: 0%
- % Cross-Reaction 1X-Ab [2]: 0%

Structure (SMILES): CC(=O)Nc1c(N)n(C)c(=O)[nH]c1=O [5-Acetamino-6-amino-1-methyluracil]
- % Cross-Reaction AAMU-Ab [1]: 100%
- % Cross-Reaction 1X-Ab [2]: 0%

Structure (SMILES): CC(=O)Nc1c(N)[nH]c(=O)[nH]c1=O [5-Acetamino-6-amino-uracil]
- % Cross-Reaction AAMU-Ab [1]: 0.6%
- % Cross-Reaction 1X-Ab [2]: 0%

Structure (SMILES): Cn1cnc2[nH]c(=O)[nH]c(=O)c21 [7-Methyl Xanthine]
- % Cross-Reaction AAMU-Ab [1]: 0%
- % Cross-Reaction 1X-Ab [2]: 0%

Structure (SMILES): Cc1nc2[nH]c(=O)[nH]c(=O)c2[nH]1 [8-Methyl Xanthine]
- % Cross-Reaction AAMU-Ab [1]: 0%
- % Cross-Reaction 1X-Ab [2]: 0%

Structure (SMILES): CC(C)[C@H](NC(=O)N(C)Cc1csc(C(C)(C)O)n1)C(=O)N[C@@H](Cc1ccccc1)C[C@H](O)[C@H](Cc1ccccc1)NC(=O)OCc1cncs1 [Compound M-2]
- concentrations of metabolite in plasma [4]: low

Structure (SMILES): COc1ccc2c(c1)[C@]13CCCC[C@@H]1[C@H](C2)N(C)CC3 [Dextromethorphan]
- mean performance+/−SE ([5]; EMs (extensive metabolizers)): 95+/−0.5%
- mean performance+/−SE ([5]; PMs (poor metabolizers)): 86+/−6%

Structure (SMILES): Nc1nc2nc[nH]c2c(=O)[nH]1 [Guanine]
- % Cross-Reaction AAMU-Ab [1]: 0%
- % Cross-Reaction 1X-Ab [2]: 0%

Structure (SMILES): O=c1[nH]cnc2nc[nH]c12 [Hypoxanthine]
- % Cross-Reaction AAMU-Ab [1]: 0%
- % Cross-Reaction 1X-Ab [2]: 0%

Structure (SMILES): CC(C)(C)NC(=O)[C@@H]1CN(Cc2cccnc2)CCN1C[C@@H](O)C[C@@H](Cc1ccccc1)C(=O)N[C@H]1c2ccccc2C[C@H]1O [Indinavir, indinavir]
- decrease in susceptibility in vitro [6]: 8 fold

Structure (SMILES): CC(=O)N1CCN(c2ccc(OCC3COC(Cn4ccnc4)(c4ccc(Cl)cc4Cl)O3)cc2)CC1 (stereo not shown) [Ketoconazole]
- Effect (on drug concentration) [3]: up ketoconazole

Structure (SMILES): CCOC(=O)C1(c2ccccc2)CCN(C)CC1 [Meperidine]
- Effect (on drug concentration) [3]: down meperidine

Structure (SMILES): CCC(=O)C(CC(C)N(C)C)(c1ccccc1)c1ccccc1 (stereo not shown) [Methadone]
- Effect (on drug concentration) [3]: down methadone

Structure (SMILES): CC(C)(C)NC(=O)[C@@H]1C[C@@H]2CCCC[C@@H]2CN1C[C@@H](O)[C@H](Cc1ccccc1)NC(=O)[C@H](CC(N)=O)NC(=O)c1ccc2ccccc2n1 [Saquinavir, saquinavir]
- decrease in susceptibility in vitro [6]: did not demonstrate a concordant decrease in susceptibility

Structure (SMILES): O=c1cc[nH]c(=O)[nH]1 [Uracil]
- % Cross-Reaction AAMU-Ab [1]: 0%
- % Cross-Reaction 1X-Ab [2]: 0%

Structure (SMILES): O=c1[nH]c(=O)c2[nH]c(=O)[nH]c2[nH]1 [Uric acid]
- % Cross-Reaction AAMU-Ab [1]: 0%
- % Cross-Reaction 1X-Ab [2]: 0%

Structure (SMILES): O=c1[nH]c(=O)c2[nH]cnc2[nH]1 [Xanthine]
- % Cross-Reaction AAMU-Ab [1]: 0^a %
- % Cross-Reaction 1X-Ab [2]: 0%

Structure (SMILES): Cc1cn([C@H]2C[C@H](N=[N+]=[N-])[C@@H](CO)O2)c(=O)[nH]c1=O [ZDV, zidovudine]
- Adverse event: Abdominal Pain [7]: 5.9%
- Adverse event: Anorexia [7]: 4.2%
- Adverse event: Anxiety [7]: 0.8%
- Adverse event: Arthralgia [7]: 0.0%
- Adverse event: Asthenia [7]: 11.8%
- Adverse event: Circumoral Paresthesia [7]: 0.0%
- Adverse event: Confusion [7]: 0.0%
- Adverse event: Constipation [7]: 0.8%
- Adverse event: Depression [7]: 2.5%
- Adverse event: Diarrhea [7]: 2.5%
- Adverse event: Dizziness [7]: 3.4%
- Adverse event: Dyspepsia [7]: 1.7%
- Adverse event: Fecal Incontinence [7]: 0.0%
- Adverse event: Fever [7]: 1.7%
- Adverse event: Flatulence [7]: 1.7%
- Adverse event: Headache [7]: 6.7%
- Adverse event: Insomnia [7]: 0.8%
- Adverse event: Local Throat Irritation [7]: 0.8%
- Adverse event: Malaise [7]: 3.4%
- Adverse event: Myalgia [7]: 0.8%
- Adverse event: Nausea [7]: 26.1%
- Adverse event: Nocturia [7]: 0.0%
- Adverse event: Pain (unspecified) [7]: 0.8%
- Adverse event: Paresthesia [7]: 0.0%
- Adverse event: Peripheral Paresthesia [7]: 0.8%
- Adverse event: Pharyngitis [7]: 0.0%
- Adverse event: Rash [7]: 0.8%
- Adverse event: Somnolence [7]: 0.0%
- Adverse event: Sweating [7]: 1.7%
- Adverse event: Syncope [7]: 0.8%
- Adverse event: Taste Perversion [7]: 8.4%
- Adverse event: Thinking Abnormal [7]: 0.8%
- Adverse event: Vasodilation [7]: 0.8%
- Adverse event: Vomiting [7]: 12.6%
- Adverse event: Weight Loss [7]: 0.0%

Structure (SMILES): CC(C)CN(C[C@@H](O)[C@H](Cc1ccccc1)NC(=O)O[C@H]1CCOC1)S(=O)(=O)c1ccc(N)cc1 [amprenavir]
- decrease in susceptibility in vitro [6]: none

Structure (SMILES): CCOC(=O)C1(c2ccccc2)CCNCC1 [normeperidine]
- Effect (on drug concentration) [3]: up normeperidine
